Reference: patent US4039540A, “3-Substituted quinoxaline-2-carboxamide-1,4-dioxides” (Pfizer Inc., priority 1975, dated 1977)
Values after ≈ are worked out from the molar mass of the structure shown. Like-named read-outs stand apart in the source and are kept apart here.

What was measured:
Strep. pyrogens = experiment: in vitro antibacterial activity, two-fold serial dilution in Brain-Heart Infusion Broth (MIC); type: cell-based; settings: overnight, anaerobic
Description: (§1) The broth is inoculated with bacteria and with the test quinoxaline-1,4-dioxide and then it is incubated overnight under anerobic conditions. On the next day, the test is read visually. The minimum inhibitory concentration (MIC) of test compound is the lowest concentration which prevents turbidity, i.e., which prevents growth of the microorganism.
(§2) In vitro and in vivo activity of representative compounds of this invention, determined as aforesaid, are reported in the following tabulation for compounds of the formula: [drawing 12]

E. coli [1] = experiment: as above; type: cell-based; settings: Escherichia coli, overnight, anaerobic
Description: as §1, §2

E. coli [2] = experiment: in vivo activity in mice infected with a lethal inoculum of E. coli; settings: Escherichia coli, sc, subcutaneous, multiple dosing, read-out: IN VIVO E. coli, number of survivors among the treated animals
Description: (§3) In determining the in vivo activity of the quinoxaline-1,4-dioxides of this invention, the test compound is administered to mice which have been infected by […] injection of a lethal inoculum of pathogenic bacteria. The test compound is administered using a multiple dosing regimen and using either the oral (PO) or the subcutaneous (SC) route. The inoculum of bacteria varies from about 1 to about 10 times the amount needed to kill 100% of the mice under the conditions of the test. At the end of the test, the activity of the compound is assessed by counting the number of survivors among the treated animals.
as §2

Strep. pyogenes = experiment: in vivo activity in mice infected with a lethal inoculum of Strep. pyogenes; settings: Streptococcus pyogenes, multiple dosing
Description: as §3, §2

[3] = oral, read-out: IN VIVO Strep. pyogenes, number of survivors among the treated animals, PO (data in parenthesis)
[4] = sc, subcutaneous, read-out: IN VIVO Strep. pyogenes, number of survivors among the treated animals

| SMILES | MIC (Strep. pyrogens) | MIC (E. coli [1]) | responders at 25 mg/kg (E. coli [2]) | responders at 50 mg/kg (Strep. pyogenes; [3]) | responders at 50 mg/kg (Strep. pyogenes; [4]) |
| --- | --- | --- | --- | --- | --- |
| CCN(CC)CCCS(=O)(=O)Cc1c(C(=O)N(C)C)[n+]([O-])c2ccccc2[n+]1[O-] [N(CH3)2; SO2 (CH2)3 N(CH2 CH3)2; H] | 6.25 µg/mL (≈ 14.7 µM) | 25 µg/mL (≈ 58.9 µM) | 0% | 10% | 60% |
| CN(C)CCCS(=O)(=O)Cc1c(C(=O)N(C)C)[n+]([O-])c2ccccc2[n+]1[O-] [N(CH3)2; SO2 (CH2)3 N(CH3)2; H] | 3.12 µg/mL (≈ 7.88 µM) | 3.12 µg/mL (≈ 7.88 µM) | 100% | 60% | 100% |
| CN(C)C(=O)c1c(CS(=O)(=O)CCCN2CCCC2)[n+]([O-])c2ccccc2[n+]1[O-] [N(CH3)2; drawing 15; H] | 3.12 µg/mL (≈ 7.4 µM) | 6.25 µg/mL (≈ 14.8 µM) | 80% |  |  |
| CN(C)C(=O)c1c(CS(=O)(=O)CCCN2CCOCC2)[n+]([O-])c2ccccc2[n+]1[O-] [N(CH3)2; drawing 19; H] | 25 µg/mL (≈ 57 µM) | 25 µg/mL (≈ 57 µM) | 20% | 10% | 0% |
| CN(C)C(=O)c1c(CS(=O)(=O)CCCN2CCCCC2)[n+]([O-])c2ccccc2[n+]1[O-] [N(CH3)2; drawing 27; H] | 3.12 µg/mL (≈ 7.16 µM) | 3.12 µg/mL (≈ 7.16 µM) | 90% | 100% | 100% |
| CCN(CC)CCCS(=O)(=O)Cc1c(C(N)=O)[n+]([O-])c2ccccc2[n+]1[O-] [NH2; SO2 (CH2)3 N(CH2 CH3)2; H] | 3.12 µg/mL (≈ 7.88 µM) | 6.25 µg/mL (≈ 15.8 µM) | 80% | 50% | 90% |
| CN(C)CCCS(=O)(=O)Cc1c(C(N)=O)[n+]([O-])c2ccccc2[n+]1[O-] [NH2; SO2 (CH2)3 N(CH3)2; H] | 1.56 µg/mL (≈ 4.24 µM) | 25 µg/mL (≈ 67.9 µM) | 50% | 20% | 100% |
| NC(=O)c1c(CS(=O)(=O)CCO)[n+]([O-])c2ccccc2[n+]1[O-] [NH2; SO2 CH2 CH2 OH; H] | 6.25 µg/mL (≈ 19.1 µM) | 12.5 µg/mL (≈ 38.2 µM) | 0% | 80% | 40% |
| NC(=O)c1c(CS(=O)(=O)CCCN2CCCC2)[n+]([O-])c2ccccc2[n+]1[O-] [NH2; drawing 14; H] | 6.25 µg/mL (≈ 15.8 µM) | 12.5 µg/mL (≈ 31.7 µM) | 50% |  |  |
| NC(=O)c1c(CS(=O)(=O)CCCN2CCOCC2)[n+]([O-])c2ccccc2[n+]1[O-] [NH2; drawing 20; H] | 12.5 µg/mL (≈ 30.5 µM) | 12.5 µg/mL (≈ 30.5 µM) | 20% | 60% | 100% |
| NC(=O)c1c(CS(=O)(=O)CCCN2CCCCC2)[n+]([O-])c2ccccc2[n+]1[O-] [NH2; drawing 24; H] | 6.25 µg/mL (≈ 15.3 µM) | 6.25 µg/mL (≈ 15.3 µM) | 100% | 40% | 100% |
| CCCCNC(=O)c1c(CS(=O)(=O)CCCN(C)C)[n+]([O-])c2ccccc2[n+]1[O-] [NH(CH2)3 CH3; SO2 (CH2)3 N(CH3)2; H] | 25 µg/mL (≈ 58.9 µM) | 25 µg/mL (≈ 58.9 µM) | 50% | 80% | 100% |
| CCN(CC)CCCNC(=O)c1c(CS(=O)(=O)CCO)[n+]([O-])c2ccccc2[n+]1[O-] [NH(CH2)3 N(Et)2; SO2 CH2 CH2 OH; H] | 200 µg/mL (≈ 454 µM) | > 200 µg/mL | 50% |  | 10% |
| O=C(NCCCCc1ccccc1)c1c(CS(=O)(=O)CCO)[n+]([O-])c2ccccc2[n+]1[O-] [NH(CH2)4 .phi.; SO2 CH2 CH2 OH; H] | 3.12 µg/mL (≈ 6.8 µM) | > 200 µg/mL | 20% | 10% | 10% |
| CCCCNC(=O)c1c(CSCCO)[n+]([O-])c2ccccc2[n+]1[O-] [NHBu; SCH2 CH2 OH; H] | 50 µg/mL (≈ 142 µM) | 50 µg/mL (≈ 142 µM) | 0% | 10% | 20% |
| CCCCNC(=O)c1c(CS(=O)(=O)CCO)[n+]([O-])c2ccccc2[n+]1[O-] [NHBu; SO2 CH2 CH2 OH; H] | 1.56 µg/mL (≈ 4.07 µM) | 25 µg/mL (≈ 65.2 µM) | 40% | 40% | 0% |
| O=C(NCc1ccccc1)c1c(CS(=O)(=O)CCO)[n+]([O-])c2ccccc2[n+]1[O-] [NHCH2 .phi.; SO2 CH2 CH2 OH; H] | 0.781 µg/mL (≈ 1.87 µM) | 200 µg/mL (≈ 479 µM) | 20% | 20% | 20% |
| O=C(NCCCO)c1c(CSCCO)[n+]([O-])c2ccccc2[n+]1[O-] [NHCH2 CH2 CH2 OH; SCH2 CH2 OH; H] | 25 µg/mL (≈ 70.7 µM) | 50 µg/mL (≈ 141 µM) | 20% | 30% | 10% |
| O=C(NCCCO)c1c(CS(=O)(=O)CCO)[n+]([O-])c2ccccc2[n+]1[O-] [NHCH2 CH2 CH2 OH; SO2 CH2 CH2 OH; H] | 12.5 µg/mL (≈ 32.4 µM) | 100 µg/mL (≈ 259 µM) | 0% | 50% | 40% |
| CCCNC(=O)c1c(CS(=O)(=O)CCCN(C)C)[n+]([O-])c2ccccc2[n+]1[O-] [NHCH2 CH2 CH3; SO2 (CH2)3 N(CH3)2; H] | 25 µg/mL (≈ 60.9 µM) | 25 µg/mL (≈ 60.9 µM) | 20% | 80% | 100% |
| CCCNC(=O)c1c(CS(=O)(=O)CCCOC(C)=O)[n+]([O-])c2ccccc2[n+]1[O-] [NHCH2 CH2 CH3; SO2 CH2 CH2 CH2 OAc; H] | 50 µg/mL (≈ 118 µM) | 200 µg/mL (≈ 470 µM) | 0% | 0% | 30% |
| CN(C)CCNC(=O)c1c(CS(=O)(=O)CCO)[n+]([O-])c2ccccc2[n+]1[O-] [NHCH2 CH2 N(CH3)2; SO2 CH2 CH2 OH; H] | 100 µg/mL (≈ 251 µM) | 50 µg/mL (≈ 125 µM) | 0% |  | 20% |
| CN(C)CCNC(=O)c1c(CS(=O)(=O)CCCN2CCCCC2)[n+]([O-])c2ccccc2[n+]1[O-] [NHCH2 CH2 N(CH3)2; drawing 21; H] | 50 µg/mL (≈ 104 µM) | 100 µg/mL (≈ 209 µM) | 40% |  |  |
| COCCNC(=O)c1c(CS(=O)(=O)CCCN(C)C)[n+]([O-])c2ccccc2[n+]1[O-] [NHCH2 CH2 OCH3; SO2 (CH2)3 N(CH3)2; H] | 1.56 µg/mL (≈ 3.66 µM) | 50 µg/mL (≈ 117 µM) | 10% | 50% | 100% |
| CCNC(=O)c1c(CS(=O)(=O)CCCCN(C)C)[n+]([O-])c2ccccc2[n+]1[O-] [NHCH2 CH3; SO2 (CH2)4 N(CH3)2; H] | 12.5 µg/mL (≈ 30.5 µM) | 50 µg/mL (≈ 122 µM) | 20% |  |  |
| CCNC(=O)c1c(CS(=O)(=O)CCCN2CCCC2)[n+]([O-])c2ccccc2[n+]1[O-] [NHCH2 CH3; drawing 16; H] | 12.5 µg/mL (≈ 29.6 µM) | 50 µg/mL (≈ 118 µM) | 60% |  |  |
| CNC(=O)c1c(CS(=O)(=O)CCCCN(C)C)[n+]([O-])c2ccccc2[n+]1[O-] [NHCH3; SO2 (CH2)4 N(CH3)2; H] | 50 µg/mL (≈ 126 µM) | 50 µg/mL (≈ 126 µM) | 40% |  |  |
| CNC(=O)c1c(CS(=O)(=O)CCCN2CCCC2)[n+]([O-])c2ccccc2[n+]1[O-] [NHCH3; drawing 13; H] | 3.12 µg/mL (≈ 7.65 µM) | 6.25 µg/mL (≈ 15.3 µM) | 80% |  |  |
